According to PubChem BioAssay (NCI):
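Cells were grown in 96-well plates and exposed to each compound for 48 hours at five concentrations; endpoints were interpolated linearly between bracketing concentrations, or set to the highest concentration if not reached. At the GI50, growth is halved. TGI denotes the concentration required for complete inhibition of growth.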

Legend:
Assay in all cases: inhibition of tumour cell growth, NCI panel, 48 h
[1] = system: UACC-62 melanoma
[2] = system: MDA-MB-231 breast
[3] = system: A498 renal
[4] = system: HOP-62 NSCLC
[5] = system: SF-268 CNS
[6] = system: COLO 205 colon
[7] = system: SF-295 CNS
[8] = system: UO-31 renal
[9] = system: OVCAR-8 ovarian
[10] = system: IGROV1 ovarian
[11] = system: RPMI-8226 leukemia
[12] = system: SW-620 colon
[13] = system: HT29 colon
[14] = system: MOLT-4 leukemia
[15] = system: NCI-H226 lung
[16] = system: MALME-3M melanoma
[17] = system: 786-0 renal
[18] = system: MCF7 breast
[19] = system: NCI-H460 lung
[20] = system: EKVX NSCLC
[21] = system: SK-MEL-5 melanoma
[22] = system: CCRF-CEM leukemia
[23] = system: K-562 leukemia
[24] = system: HCC-2998 colon
[25] = system: KM12 colon
[26] = system: LOX IMVI melanoma
[27] = system: OVCAR-3 ovarian
[28] = system: SN12C renal
[29] = system: NCI-H23 lung
[30] = system: HS 578T breast
[31] = system: NCI-H522 lung
[32] = system: SK-MEL-28 melanoma
[33] = system: A549 NSCLC
[34] = system: HOP-92 NSCLC
[35] = system: ACHN renal
[36] = system: M14 melanoma
[37] = system: MDA-MB-435
[38] = system: OVCAR-4 ovarian
[39] = system: SF-539 CNS
[40] = system: TK-10 renal
[41] = system: HCT-15 colon
[42] = system: SNB-19 CNS
[43] = system: SK-MEL-2 melanoma
[44] = system: HCT-116 colon
[45] = system: CAKI-1 renal
[46] = system: SR leukemia
[47] = system: T-47D breast
[48] = system: SNB-75 CNS
[49] = system: OVCAR-5 ovarian
[50] = system: SK-OV-3 ovarian
[51] = system: BT-549 breast
[52] = system: PC-3 prostate
[53] = system: U251 CNS
[54] = system: RXF 393 renal
[55] = system: NCI/ADR-RES ovarian
[56] = system: DU-145 prostate
[57] = system: UACC-257 melanoma
[58] = system: HL-60(TB) leukemia

SMILES: Cc1cc(I)cc(CN(C)CCN(C)C)c1O
- GI50 [1]: 17.8 µM
- TGI [1]: 33 µM
- GI50 [2]: 26.7 µM
- TGI [2]: > 72.3 µM
- GI50 [3]: 33.8 µM
- TGI [3]: > 77.9 µM
- GI50 [4]: 37.8 µM
- TGI [4]: > 100 µM
- GI50 [5]: 20.7 µM
- TGI [5]: > 73 µM
- GI50 [6]: 17.3 µM
- TGI [6]: 33.3 µM
- GI50 [7]: 20.5 µM
- TGI [7]: 56.8 µM
- GI50 [8]: 40.7 µM
- TGI [8]: > 100 µM
- GI50 [9]: 60 µM
- TGI [9]: > 100 µM
- GI50 [10]: 27.7 µM
- TGI [10]: 82.7 µM
- GI50 [11]: 15.5 µM
- TGI [11]: 51.6 µM
- GI50 [12]: 39.5 µM
- TGI [12]: > 100 µM
- GI50 [13]: 19.4 µM
- TGI [13]: 41.9 µM
- GI50 [14]: 26.6 µM
- TGI [14]: > 68.6 µM
- GI50 [15]: 75.3 µM
- TGI [15]: > 100 µM
- GI50 [16]: 18.9 µM
- TGI [16]: 36.8 µM
- GI50 [17]: 40.1 µM
- TGI [17]: > 100 µM
- GI50 [18]: 25.6 µM
- TGI [18]: 66.1 µM
- GI50 [19]: 26.7 µM
- TGI [19]: > 100 µM
- GI50 [20]: 61.5 µM
- TGI [20]: > 100 µM
- GI50 [21]: 16.5 µM
- TGI [21]: 30.3 µM
- GI50 [22]: < 0.0354 µM
- GI50 [23]: 24.9 µM
- TGI [23]: > 64.3 µM
- GI50 [24]: 16.3 µM
- TGI [24]: 32.1 µM
- GI50 [25]: 46.3 µM
- TGI [25]: > 100 µM
- GI50 [26]: 24.4 µM
- TGI [26]: > 73.1 µM
- GI50 [27]: 41.9 µM
- TGI [27]: > 100 µM
- GI50 [28]: 47.4 µM
- TGI [28]: > 100 µM
- GI50 [29]: 33.1 µM
- TGI [29]: > 100 µM
- GI50 [30]: 26 µM
- TGI [30]: > 69 µM
- GI50 [31]: 36.8 µM
- TGI [31]: > 100 µM
- GI50 [32]: 18.2 µM
- TGI [32]: 33.4 µM
- GI50 [33]: 46.6 µM
- TGI [33]: > 100 µM
- GI50 [34]: 17.1 µM
- TGI [34]: 67.3 µM
- GI50 [35]: 39.6 µM
- TGI [35]: > 100 µM
- GI50 [36]: 16 µM
- TGI [36]: 31.8 µM
- GI50 [37]: 18.8 µM
- TGI [37]: 48.9 µM
- GI50 [38]: 52.2 µM
- TGI [38]: > 100 µM
- GI50 [39]: 30.7 µM
- TGI [39]: > 82.8 µM
- GI50 [40]: 33.1 µM
- TGI [40]: > 100 µM
- GI50 [41]: 28.5 µM
- TGI [41]: 76.5 µM
- GI50 [42]: 64.3 µM
- TGI [42]: > 100 µM
- GI50 [43]: 22.1 µM
- TGI [43]: 44.2 µM
- GI50 [44]: 24.9 µM
- TGI [44]: > 100 µM
- GI50 [45]: 26.7 µM
- TGI [45]: > 80.4 µM
- GI50 [46]: 5.44 µM
- TGI [46]: 50.4 µM
- GI50 [47]: 28.8 µM
- TGI [47]: > 100 µM
- GI50 [48]: 21.9 µM
- TGI [48]: 59.9 µM
- GI50 [49]: 55.7 µM
- TGI [49]: > 100 µM
- GI50 [50]: 76.6 µM
- TGI [50]: > 100 µM
- GI50 [51]: 26.8 µM
- TGI [51]: > 78.3 µM
- GI50 [52]: 29.1 µM
- TGI [52]: > 100 µM
- GI50 [53]: 39.2 µM
- TGI [53]: > 100 µM
- GI50 [54]: 25.5 µM
- TGI [54]: > 84.8 µM
- GI50 [55]: 38.1 µM
- TGI [55]: > 100 µM
- GI50 [56]: 44.4 µM
- TGI [56]: > 100 µM
- GI50 [57]: 39.3 µM
- TGI [57]: > 62 µM
- GI50 [58]: 19.7 µM
- TGI [58]: 55.9 µM

SMILES: CCN(CCCNC(=O)Cc1cc(=O)oc2cc(N(C)C)ccc12)CCNc1ccnc2cc(Cl)ccc12
- GI50 [1]: 3.36 µM
- TGI [1]: 11.9 µM
- GI50 [2]: 3.47 µM
- TGI [2]: 16.9 µM
- GI50 [3]: 12.4 µM
- TGI [3]: > 100 µM
- GI50 [4]: 13.2 µM
- TGI [4]: 32.5 µM
- GI50 [5]: 11.3 µM
- TGI [5]: 30.5 µM
- GI50 [6]: 6.54 µM
- TGI [6]: 20.8 µM
- GI50 [7]: 12.4 µM
- TGI [7]: 27.6 µM
- GI50 [8]: 15.5 µM
- TGI [8]: 40.6 µM
- GI50 [9]: 8.29 µM
- TGI [9]: 61.7 µM
- GI50 [10]: 13.1 µM
- TGI [10]: 35.1 µM
- GI50 [11]: 12.4 µM
- TGI [11]: 38.8 µM
- GI50 [12]: 5.84 µM
- TGI [12]: 19.4 µM
- GI50 [13]: 3.39 µM
- TGI [13]: 12.1 µM
- GI50 [14]: 8.13 µM
- TGI [14]: 28 µM
- GI50 [15]: 10.9 µM
- TGI [15]: 34.4 µM
- GI50 [16]: 1.83 µM
- TGI [16]: 3.86 µM
- GI50 [17]: 16 µM
- TGI [17]: 36.8 µM
- GI50 [18]: 7.42 µM
- TGI [18]: 22.7 µM
- GI50 [19]: 9.54 µM
- TGI [19]: 22.3 µM
- GI50 [20]: 22.2 µM
- TGI [20]: 70 µM
- GI50 [21]: 1.55 µM
- TGI [21]: 2.93 µM
- GI50 [22]: 4.38 µM
- TGI [22]: 34 µM
- GI50 [23]: 2.78 µM
- TGI [23]: 7.56 µM
- GI50 [24]: 7.87 µM
- TGI [24]: 21.3 µM
- GI50 [25]: 12.5 µM
- TGI [25]: 28.1 µM
- GI50 [26]: 2 µM
- TGI [26]: 5.01 µM
- GI50 [27]: 14 µM
- TGI [27]: 33.2 µM
- GI50 [28]: 13.9 µM
- TGI [28]: 36 µM
- GI50 [29]: 14 µM
- TGI [29]: 34.3 µM
- GI50 [30]: 13.3 µM
- TGI [30]: 32.1 µM
- GI50 [31]: 4.4 µM
- TGI [31]: 16.2 µM
- GI50 [33]: 11.3 µM
- TGI [33]: 28.6 µM
- GI50 [34]: 1.48 µM
- TGI [34]: 13.8 µM
- GI50 [35]: 9.21 µM
- TGI [35]: 24.3 µM
- GI50 [36]: 2.08 µM
- TGI [36]: 3.85 µM
- GI50 [37]: 2.29 µM
- TGI [37]: 5.78 µM
- GI50 [38]: 15 µM
- TGI [38]: 41.4 µM
- GI50 [39]: 1.69 µM
- TGI [39]: 3.42 µM
- GI50 [40]: 6.46 µM
- TGI [40]: 20.3 µM
- GI50 [41]: 10.4 µM
- TGI [41]: 29.5 µM
- GI50 [42]: 18.9 µM
- TGI [42]: 52.7 µM
- GI50 [43]: 12.6 µM
- TGI [43]: 26.2 µM
- GI50 [44]: 4.86 µM
- TGI [44]: 17 µM
- GI50 [45]: 15.6 µM
- TGI [45]: 39.5 µM
- GI50 [46]: 2.6 µM
- TGI [46]: 6.64 µM
- GI50 [47]: 12.5 µM
- TGI [47]: 39.8 µM
- GI50 [48]: 6.44 µM
- TGI [48]: 25.6 µM
- GI50 [49]: 16.5 µM
- TGI [49]: 38.2 µM
- GI50 [50]: 23.9 µM
- TGI [50]: 56.5 µM
- GI50 [51]: 14.4 µM
- TGI [51]: 34.6 µM
- GI50 [52]: 13.8 µM
- TGI [52]: 37.9 µM
- GI50 [53]: 3.4 µM
- TGI [53]: 12.6 µM
- GI50 [54]: 1.72 µM
- TGI [54]: 5.15 µM
- GI50 [55]: 30.7 µM
- TGI [55]: > 100 µM
- GI50 [56]: 18.4 µM
- TGI [56]: 47.7 µM
- GI50 [57]: 1.79 µM
- TGI [57]: 3.65 µM
- GI50 [58]: 16.3 µM
- TGI [58]: 44.2 µM
